{"source": "patent US20070037831A1", "about": "“Methods of using PDE 5 inhibitors for the treatment of congestive heart failure” (priority 2004, published 2007)", "target": "PDE V (Homo sapiens, UniProt O76074)", "experiment": "PDE V inhibition (PDE V IC50)", "type": "biochemical"}
{"smiles": "CCn1c(=O)c2c(nc(NC3CCCC3)n2Cc2ccc(O)cc2)n(CC)c1=O", "note": "[Compound 63]", "values": [{"measurement": "IC50", "value": "≤ 5", "unit": "nM"}]}
{"smiles": "CCCn1c(=O)n(CC)c(=O)c2c1nc(NC1CCCCC1)n2Cc1ccc(O)c(Cl)c1", "note": "[Compound 172]", "values": [{"measurement": "IC50", "value": "5 to 10", "unit": "nM"}]}
{"smiles": "COc1ccc(Cn2c(NC3CCCCCC3)nc3c2c(=O)n(C)c(=O)n3C)cc1", "note": "[Compound 43]", "values": [{"measurement": "IC50", "value": "15 to 100", "unit": "nM"}]}
{"smiles": "CCn1c(=O)c2c(nc(NC3CCCC3)n2Cc2ccc(OC)cc2)n(CC)c1=O", "note": "[Compound 60]", "values": [{"measurement": "IC50", "value": "≤ 5", "unit": "nM"}]}
{"smiles": "CCn1c(=O)c2c(nc(NC3CCCCC3)n2Cc2ccc(C(F)(F)F)cc2)n(CC(C)C)c1=O", "note": "[Compound 96]", "values": [{"measurement": "IC50", "value": "15 to 100", "unit": "nM"}]}
{"smiles": "COc1ccc(Cn2c(NC3CCCCC3)nc3c2c(=O)n(C)c(=O)n3C)cc1Cl", "note": "[Compound 159]", "values": [{"measurement": "IC50", "value": "5 to 10", "unit": "nM"}]}
{"smiles": "Cn1c(=O)c2c(nc(NC3CCCCCC3)n2Cc2ccc(O)cc2)n(C)c1=O", "note": "[Compound 69]", "values": [{"measurement": "IC50", "value": "15 to 100", "unit": "nM"}]}
{"smiles": "CCn1c(=O)c2c(nc(NC3CCCCC3)n2Cc2ccccc2)n(CCO)c1=O", "note": "[Compound 101]", "values": [{"measurement": "IC50", "value": "15 to 100", "unit": "nM"}]}
{"smiles": "CCn1c(=O)c2c(nc(N[C@H]3CC[C@H](O)CC3)n2Cc2ccc(OC)c(Br)c2)n(CC)c1=O", "note": "[Compound 125]", "values": [{"measurement": "IC50", "value": "10 to 15", "unit": "nM"}]}
{"smiles": "CCn1c(=O)c2c(nc(NC3(CO)CC=CC3)n2Cc2ccc(OC)cc2)n(C)c1=O", "note": "[Compound 25]", "values": [{"measurement": "IC50", "value": "15 to 100", "unit": "nM"}]}
{"smiles": "CCn1c(=O)[nH]c2nc(NC3CCCC3)n(Cc3ccc(O)cc3)c2c1=O", "note": "[Compound 95]", "values": [{"measurement": "IC50", "value": "5 to 10", "unit": "nM"}]}
{"smiles": "COc1ccc(Cn2c(NC3CCCCC3)nc3c2c(=O)n(C)c(=O)n3C)cc1C", "note": "[Compound 144]", "values": [{"measurement": "IC50", "value": "10 to 15", "unit": "nM"}]}
{"smiles": "CCn1c(=O)c2c(nc(NC3CCCC3)n2Cc2ccc(O)cc2)n(CC(C)C)c1=O", "note": "[Compound 59]", "values": [{"measurement": "IC50", "value": "5 to 10", "unit": "nM"}]}
{"smiles": "CCn1c(=O)c2c(nc(NC3CCCCC3)n2Cc2ccccc2)n(CC(C)C)c1=O", "note": "[Compound 56]", "values": [{"measurement": "IC50", "value": "15 to 100", "unit": "nM"}]}
{"smiles": "Cn1c(=O)c2c(nc(NC3CCCCC3)n2Cc2cc3c(cc2Cl)OCO3)n(C)c1=O", "note": "[Compound 160]", "values": [{"measurement": "IC50", "value": "10 to 15", "unit": "nM"}]}
{"smiles": "COc1cccc(Cn2c(NC3CCCCC3)nc3c2c(=O)n(C)c(=O)n3C)c1", "note": "[Compound 141]", "values": [{"measurement": "IC50", "value": "15 to 100", "unit": "nM"}]}
{"smiles": "CCn1c(=O)c2c(nc(NC3CCCC3O)n2Cc2ccc(OC)cc2)n(CC(C)C)c1=O", "note": "(centres unmarked) [Compound 40]", "values": [{"measurement": "IC50", "value": "10 to 15", "unit": "nM"}]}
{"smiles": "COc1ccc(Cn2c(NC3(CO)CC=CC3)nc3c2c(=O)n(C)c(=O)n3C)cc1", "note": "[Compound 34]", "values": [{"measurement": "IC50", "value": "10 to 15", "unit": "nM"}]}
{"smiles": "CCCn1c(=O)n(CC)c(=O)c2c1nc(NC1CCCCC1)n2Cc1ccc(OC)c(C)c1", "note": "[Compound 176]", "values": [{"measurement": "IC50", "value": "15 to 100", "unit": "nM"}]}
{"smiles": "CCCn1c(=O)n(CC)c(=O)c2c1nc(NC1CCCCC1)n2Cc1ccc(S(C)(=O)=O)cc1", "note": "[Compound 121]", "values": [{"measurement": "IC50", "value": "15 to 100", "unit": "nM"}]}
{"smiles": "CCn1c(=O)c2c(nc(N[C@@H]3CCC[C@H]3O)n2Cc2ccc(O)c(C)c2)n(CCO)c1=O", "note": "[Compound 113]", "values": [{"measurement": "IC50", "value": "15 to 100", "unit": "nM"}]}
{"smiles": "CCn1c(=O)c2c(nc(NC3CCCCC3)n2Cc2ccc(S(N)(=O)=O)c(Cl)c2)n(CC)c1=O", "note": "[Compound 179]", "values": [{"measurement": "IC50", "value": "≤ 5", "unit": "nM"}]}
{"smiles": "Cn1c(=O)c2c(nc(NC3CCCCC3)n2Cc2cccc(F)c2)n(C)c1=O", "note": "[Compound 137]", "values": [{"measurement": "IC50", "value": "15 to 100", "unit": "nM"}]}
{"smiles": "CCn1c(=O)c2c(nc(NC3CCS(=O)(=O)CC3)n2Cc2ccc(OC)c(Br)c2)n(CC)c1=O", "note": "[Compound 194]", "values": [{"measurement": "IC50", "value": "15 to 100", "unit": "nM"}]}
{"smiles": "CCn1c(=O)c2c(nc(NC3CCCC3)n2Cc2ccccc2)n(CC(C)C)c1=O", "note": "[Compound 55]", "values": [{"measurement": "IC50", "value": "15 to 100", "unit": "nM"}]}
{"smiles": "CCn1c(=O)c2c(nc(NC3CCCCC3)n2Cc2ccc(OC)cc2)n(CC)c1=O", "note": "[Compound 61]", "values": [{"measurement": "IC50", "value": "≤ 5", "unit": "nM"}]}
{"smiles": "CCn1c(=O)c2c(nc(N[C@@H]3CCC[C@H]3O)n2Cc2ccc(S(N)(=O)=O)c(Cl)c2)n(CC)c1=O", "note": "[Compound 181]", "values": [{"measurement": "IC50", "value": "15 to 100", "unit": "nM"}]}
{"smiles": "CCn1c(=O)c2c(nc(NC3CCS(=O)(=O)CC3)n2Cc2ccc(OC)c(Cl)c2)n(CC)c1=O", "note": "[Compound 193]", "values": [{"measurement": "IC50", "value": "15 to 100", "unit": "nM"}]}
{"smiles": "CCn1c(=O)c2c(nc(NC3CCCCC3)n2Cc2ccc(O)cc2)n(C)c1=O", "note": "[Compound 78]", "values": [{"measurement": "IC50", "value": "5 to 10", "unit": "nM"}]}
{"smiles": "COc1ccc(Cn2c(NC3CCCCC3)nc3c2c(=O)[nH]c(=O)n3C)cc1", "note": "[Compound 70]", "values": [{"measurement": "IC50", "value": "15 to 100", "unit": "nM"}]}
{"smiles": "CCn1c(=O)c2c(nc(NC3CCSCC3)n2Cc2ccc(OC)c(Br)c2)n(CC)c1=O", "note": "[Compound 198]", "values": [{"measurement": "IC50", "value": "≤ 5", "unit": "nM"}]}
{"smiles": "CCCn1c(=O)n(CC)c(=O)c2c1nc(NC1CCCCC1)n2Cc1ccccc1F", "note": "[Compound 173]", "values": [{"measurement": "IC50", "value": "15 to 100", "unit": "nM"}]}
